The text below walks through data of US10189838B2, “Aza-oxo-indoles for the treatment and prophylaxis of respiratory syncytial virus infection” (Hoffmann-La Roche Inc., priority 2013, dated 2019).

For one data set, the system named is RSV infection. The conditions noted are these: selected infants, intramuscularly 15 mg/kg once a month for the RSV season; cited from earlier work.
Data set [1] can be described thus: Single dose PK in male ICR mouse (IV and PO). In kind it is in vivo. The conditions noted are these: male ICR mice; for AUC(0-t) / bioavailability: mouse, plasma; for bioavailability: read-out: F (bioavailability). The procedure: The single dose PK in male ICR mouse was performed to assess their pharmacokinetic properties. Two groups of animals were dosed via either bolus intravenous (IV) or oral gavage (PO) of the respective compound. The animals for oral administration were fasted overnight prior to dosing and food was resumed 4 hours postdose. Blood samples (approximately 400 μL) were collected via cardiac puncture after euthanasia by carbon dioxide inhalation at 2 minutes, 5 minutes, 15 minutes, 30 minutes, 1 hour, 2 hours, 4 hours, 6 hours, 8 hours, and 24 hours postdose for IV group, and at 5 minutes, 15 minutes, 30 minutes, 1 hour, 2 hours, 4 hours, 6 hours, 8 hours, and 24 hours postdose for PO group. Blood samples were placed into tubes containing sodium heparin and centrifuged at 8000 rpm for 6 minutes at 4° C. to separate plasma from the samples.
Following centrifugation, the resulting plasma was transferred to clean tubes for bioanalysis on LC/MS/MS. The pharmacokinetic parameters were calculated using non-compartmental module of WinNonlin® Professional 5.2.

For the next data set, the system named is RSV Long strain. Nature of the data set: Viral cytopathic effect (CPE) assay, RSV Long strain. In kind it is cell-based, Respiratory Syncytial Virus. As to conditions: human respiratory syncytial virus, 144 h, cell viability after 6 days (Cell Counting kit-8). A digest of the protocol:
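Cells in DMEM with 10% FBS infected next day with RSV Long (A subtype) at a dose giving ~80–90% CPE after 6 days, alongside half-log compound dilutions. Viability at day 6 by CCK-8, absorbance 450 nm referenced to 630 nm; EC50 is concentration giving 50% of maximal protection.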
In general terms: Damage to the host cells serves as the signal in cytopathic effect assays.

On to palivizumab, for which the “reduction of hospitalization rate caused by RSV infection” value in the data set with RSV infection is reported as 45-55%.
In data set [1] (IV 2 mg/kg), `CS(=O)(=O)CCn1c(CN2C(=O)C3(CC3)c3ccncc32)nc2cc(Cl)cc(F)c21` [Example 37-1, 1′-({5-Chloro-7-fluoro-1-[2-(methylsulfonyl)ethyl]-1H-benzimidazol-2-yl}methyl)spiro[cyclopropane-1,3′-pyrrolo[2,3-c]pyridin]-2′(1′H)-one] yielded a CLz of 44.4 mL/min/kg, a t1/2z of 0.976 h and an AUC(0-t) of 751 ng·h/mL. In data set [1] (PO 25 mg/kg), the t1/2z came out at 3.74 h, the AUC(0-t) was found to be 9290 ng·h/mL and the bioavailability was found to be 99%. In the data set with RSV Long strain, the EC50 came to 9 nM.
On to `CS(=N)(=O)CCn1c(CN2C(=O)C3(CC3)c3ccncc32)cc2cc(Cl)ccc21` (stereo not shown) [Example 14-2, 1′-({5-Chloro-1-[2-(S-methylsulfonimidoyl)ethyl]-1H-indol-2-yl}methyl)spiro[cyclopropane-1,3′-pyrrolo[2,3-c]pyridin]-2′(1′H)-one], for which the EC50 in the data set on RSV Long strain stood at 7 nM.
In the data set with RSV Long strain, `CS(=N)(=O)CCCCn1c(CN2C(=O)C3(CC3)c3ccncc32)cc2cc(Cl)cnc21` (stereo not shown) [Example 14-3, 1′-({5-Chloro-1-[4-(S-methylsulfonimidoyl)butyl]-1H-pyrrolo[2,3-b]pyridin-2-yl}methyl)spiro[cyclopropane-1,3′-pyrrolo[2,3-c]pyridin]-2′(1′H)-one] returned an EC50 of 74 nM.
Same read-out and setting: for `O=C1N(Cc2nc3cc(Cl)ccc3n2CC2COC2)c2cnccc2C12CC2` [Example 38-1, 1′-{[5-Chloro-1-(oxetan-3-ylmethyl)-1H-benzimidazol-2-yl]methyl}spiro[cyclopropane-1,3′-pyrrolo[2,3-c]pyridin]-2′(1′H)-one] the value was 3 nM; for `COc1ccc2c(c1)cc(CN1C(=O)C3(CC3)c3ccncc31)n2CCS(C)(=O)=O` [Example 1-2, 1′-({5-Methoxy-1-[2-(methylsulfonyl)ethyl]-1H-indol-2-yl}methyl)spiro[cyclopropane-1,3′-pyrrolo[2,3-c]pyridin]-2′(1′H)-one], 74 nM; for `Cc1ccc2c(c1)cc(CN1C(=O)C3(CC3)c3ccncc31)n2CCS(C)(=O)=O` [Example 1-13, 1′-({5-Methyl-1-[2-(methylsulfonyl)ethyl]-1H-indol-2-yl}methyl)spiro[cyclopropane-1,3′-pyrrolo[2,3-c]pyridin]-2′(1′H)-one], 9 nM.
Same read-out and setting: the result for `CS(=O)(=O)CCn1c(CN2C(=O)C3(CCCC3)c3ccncc32)cc2cc(Cl)cnc21` [Example 2-8, 1′-({5-Chloro-1-[2-(methylsulfonyl)ethyl]-1H-pyrrolo[2,3-b]pyridin-2-yl}methyl)spiro[cyclopentane-1,3′-pyrrolo[2,3-c]pyridin]-2′(1′H)-one] reads 919 nM.
For `CS(=O)(=O)CCn1c(CN2C(=O)C3(CC3)c3ccncc32)cc2cc(Cl)cnc21` [Example 2-6, 1′-({5-Chloro-1-[2-(methylsulfonyl)ethyl]-1H-pyrrolo[2,3-b]pyridin-2-yl}methyl)spiro[cyclopropane-1,3′-pyrrolo[2,3-c]pyridin]-2′(1′H)-one], in data set [1] (IV 5 mg/kg), the CLz worked out at 23.7 mL/min/kg, the t1/2z was 0.724 h and the AUC(0-t) stood at 3510 ng·h/mL. Also, in data set [1] (PO 25 mg/kg), the “F (bioavailability)” value turned out to be 58.3%, the t1/2z is 0.701 h and the AUC(0-t) was 10200 ng·h/mL. In the data set with RSV Long strain, this compound came in with an EC50 of 27.3 nM.
`CN(C)S(=O)(=O)CCCn1c(CN2C(=O)C3(CC3)c3ccncc32)cc2cc(Cl)ccc21` [Example 7-1, 3-{5-Chloro-2-[(2′-oxospiro[cyclopropane-1,3′-pyrrolo[2,3-c]pyridin]-1′(2′H)-yl)methyl]-1H-indol-1-yl}-N,N-dimethylpropane-1-sulfonamide] registered an EC50 with RSV Long strain of 7 nM.
Still for that read-out and setting: the result for `COC(=O)CCCn1c(CN2C(=O)C3(CC3)c3ccncc32)cc2cc(Cl)ccc21` [Example 17, Methyl 4-{5-chloro-2-[(2′-oxospiro[cyclopropane-1,3′-pyrrolo[2,3-c]pyridin]-1′(2′H)-yl)methyl]-1H-indol-1-yl}butanoate] reads 18.6 nM.
In data set [1] (IV 1.45 mg/kg), `CS(=O)(=O)CCn1c(CN2C(=O)C3(CC3)c3ccncc32)nc2cc(Cl)ccc21` [Example 34-1, 1′-({5-Chloro-1-[2-(methylsulfonyl)ethyl]-1H-benzimidazol-2-yl}methyl)spiro[cyclopropane-1,3′-pyrrolo[2,3-c]pyridin]-2′(1′H)-one] yielded a CLz of 64.8 mL/min/kg, a t1/2z of 10.2 h and an AUC(0-t) of 373 ng·h/mL. Moreover, in data set [1] (PO 25 mg/kg), the t1/2z is 2.98 h, the AUC(0-t) stood at 3280 ng·h/mL and the bioavailability is 51%. This compound came in with an EC50 with RSV Long strain of 12 nM.
For `O=C1N(Cc2nc3cc(Cl)ccc3n2CCS(=O)(=O)C2CC2)c2cnccc2C12CC2` [Example 36-2, 1′-({5-Chloro-1-[2-(cyclopropylsulfonyl)ethyl]-1H-benzimidazol-2-yl}methyl)spiro[cyclopropane-1,3′-pyrrolo[2,3-c]pyridin]-2′(1′H)-one], a half-maximal response in the data set on RSV Long strain (EC50) required 8 nM.
On the same count and under the same terms, for `NS(=O)(=O)CCCn1c(CN2C(=O)C3(CC3)c3ccncc32)cc2cc(Cl)cnc21` [Example 25-3, 3-{5-Chloro-2-[(2′-oxospiro[cyclopropane-1,3′-pyrrolo[2,3-c]pyridin]-1′(2′H)-yl)methyl]-1H-pyrrolo[2,3-b]pyridin-1-yl}propane-1-sulfonamide] the value was 41 nM.
In the data set on RSV Long strain, `O=C1N(Cc2cc3cc(Cl)ccc3n2CCCS(=O)(=O)N2C[C@H]3C[C@@H]2CN3)c2cnccc2C12CC2` [Example 24-3, 1′-[(5-Chloro-1-{3-[(1R,4R)-2,5-diazabicyclo[2.2.1]hept-2-ylsulfonyl]propyl}-1H-indol-2-yl)methyl]spiro[cyclopropane-1,3′-pyrrolo[2,3-c]pyridin]-2′(1′H)-one] registered an EC50 of 19 nM.
Still for that read-out and setting: for `CS(=O)(=O)CCn1c(CN2C(=O)C3(CC3)c3ccncc32)cc2cnccc21` [Example 1-14, 1′-({1-[2-(Methylsulfonyl)ethyl]-1H-pyrrolo[3,2-c]pyridin-2-yl}methyl)spiro[cyclopropane-1,3′-pyrrolo[2,3-c]pyridin]-2′(1′H)-one] the value was 77.8 nM.
With `O=C(O)CCn1c(CN2C(=O)C3(CC3)c3ccncc32)cc2cc(Cl)ccc21` [Example 16-1, 3-{5-Chloro-2-[(2′-oxospiro[cyclopropane-1,3′-pyrrolo[2,3-c]pyridin]-1′(2′H)-yl)methyl]-1H-indol-1-yl}propanoic acid], the 50% effective concentration (EC50) in the data set on RSV Long strain is 390 nM.
In the data set on RSV Long strain, `CNS(=O)(=O)CCCn1c(CN2C(=O)C3(CC3)c3ccncc32)cc2cc(Cl)ccc21` [Example 25-2, 3-{5-Chloro-2-[(2′-oxospiro[cyclopropane-1,3′-pyrrolo[2,3-c]pyridin]-1′(2′H)-yl)methyl]-1H-indol-1-yl}-N-methylpropane-1-sulfonamide] showed an EC50 of 11 nM.
The same measure, in the same setting: for `O=C1N(Cc2nc3cc(Cl)ccc3n2CCC2CS(=O)(=O)C2)c2cnccc2C12CC2` [Example 35, 1′-({5-Chloro-1-[2-(1,1-dioxidothietan-3-yl)ethyl]-1H-benzimidazol-2-yl}methyl)spiro[cyclopropane-1,3′-pyrrolo[2,3-c]pyridin]-2′(1′H)-one] the value was 1.1 nM.
Same read-out and setting: for `CS(=O)(=O)c1ccc(Cn2c(CN3C(=O)C4(CC4)c4ccncc43)cc3cc(Cl)ccc32)cc1` [Example 4-2, 1′-({5-Chloro-1-[4-(methylsulfonyl)benzyl]-1H-indol-2-yl}methyl)spiro[cyclopropane-1,3′-pyrrolo[2,3-c]pyridin]-2′(1′H)-one] the value was 275 nM; for `O=C1N(Cc2cc3cc(Cl)ncc3n2CCCS(=O)(=O)C2CC2)c2cnccc2C12CC2` [Example 4-9, 1′-({5-Chloro-1-[3-(cyclopropylsulfonyl)propyl]-1H-pyrrolo[2,3-c]pyridin-2-yl}methyl)spiro[cyclopropane-1,3′-pyrrolo[2,3-c]pyridin]-2′(1′H)-one], 48.7 nM.
Consider `CN(C)S(=O)(=O)CCn1c(CN2C(=O)C3(CC3)c3ccncc32)cc2cc(Cl)ccc21` [Example 7-3, 2-{5-Chloro-2-[(2′-oxospiro[cyclopropane-1,3′-pyrrolo[2,3-c]pyridin]-1′(2′H)-yl)methyl]-1H-indol-1-yl}-N,N-dimethylethanesulfonamide], for which a half-maximal response in the data set on RSV Long strain (EC50) required 23 nM.

The term AUC(0-t) denotes the area under the concentration-time curve up to a stated or last time point. Low values mean less exposure, high ones more exposure. In general, bioavailability refers to dose-corrected exposure relative to a reference, in per cent. The term EC50 denotes the midpoint of the concentration-response curve.
